{"source": "patent US5587442A", "about": "“Polyglycomers” (priority 1994, dated 1996)", "key": {"[1]": {"target": "T1, concanavalin A (Con A) (Canavalia ensiformis, UniProt P02866)", "T1 construct": "purchased Calbiochem", "assay": "Inhibition of Con A induced erythrocyte agglutination (hemagglutination inhibition assay)", "assay_type": "cell-based", "description": "To assess the activity of our polymers, we compared the ability of the polymer to inhibit erythrocyte agglutination by Con A with that of several controls including the monovalent carbohydrate derivative methyl-α-D-glucopyranoside and the divalent-glucose substituted 7-oxanorbornene 3.\nThe agglutination inhibition assays were performed according to standard protocols. (Osawa, et al., Methods Enzymol. 28:323-327, 1972.) The assay was as follows: Pure lyophilized Con A was dissolved in HEPES buffer with 100 mM CaCl2, pH 8.0, and dialyzed into phosphate buffered saline (PBS, 25 mM sodium phosphate, 0.15M NaCl), pH 7.2, for the assay. Protein solution concentration was estimated from UV absorbance measurements at 280 nm.\nRabbit red blood cells were stored as a 10% suspension in Alsever's solution and washed 3× with PBS before the assay. For the assay, the cells were pelleted and resuspended in PBS with 0.5% bovine serum albumin.\nPolymeric inhibitors were purified by precipitation or by gel filtration. The inhibition results obtained for compounds purified by either method were consistent. The minimum concentration of inhibitor required to inhibit four hemagglutinating doses of Con A was determined. After preincubation with the inhibitor, a 2% suspension of erythrocytes was added. The samples were examined for agglutination after 1 hour at room temperature.\nSubstrates were incubated with four agglutinating doses of Con A, prior to the addition of rabbit erythrocytes. The concentration of glucose moieties in solution required for inhibition was determined for each substrate within a two-fold dilution."}, "[2]": {"target": "L-selectin", "assay": "ELISA: inhibition of L-selectin-IgG binding to immobilized GlyCAM-1", "description": "(§1) The affinity of compounds 8, 9 and 10 for each selectin were tested in an ELISA assay that compares their ability to inhibit binding of the selectins to immobilized GlyCAM-1. Because all of the selectins bind to GlyCAM-1 (FIG. 4) this assay provides insight into the relative affinities and specificities of the identified GlyCAM-1 component for each selectin.\n(§2) The ELISAs were executed by the following protocol: An antibody to GlyCAM-1 was immobilized in a microtiter well. GlyCAM-1 was added. Selectin-IgG chimeras, which were biotinylated, were added to streptavidin-alkaline phosphatase conjugate. The binding of the selectin-IgGbiotin .cndot.strepavidin-alkaline phosphatase to GlyCAM-1 was monitored by UV. Para-nitrophenolate is produced from alkaline phosphatase catalyzed hydrolysis of paranitrophenolphosphate (Qed). The inhibitory effects of saccharides 8-10 on selectin-IgG binding to immobilized GlyCAM-1 were measured by this method."}, "[3]": {"tested_on": "P-selectin", "assay": "ELISA: inhibition of P-selectin-IgG binding to immobilized GlyCAM-1", "conditions": "compared among 8, 9, 10", "description": "as §1, §2"}, "[4]": {"tested_on": "E-selectin", "assay": "ELISA: inhibition of E-selectin-IgG binding to immobilized GlyCAM-1", "conditions": "compared among 8, 9, 10", "description": "as §1, §2"}, "[5]": {"tested_on": "Con A", "conditions": "cited from earlier work"}, "[6]": {"conditions": "Table 2, four agglutinating doses of Con A, rabbit erythrocytes, 1 hour at room temperature, pH 7.2, within a two-fold dilution"}}}
{"compound": "O=C(OCCC1OC(CO)C(O)C(O)C1O)C1C2C=CC(O2)C1C(=O)OCCC1OC(CO)C(O)C(O)C1O", "note": "(centres unmarked) [7-oxanorbornene 3]", "values": [{"measurement": "Inhibiting dose compared with methyl-α-D-glucopyranoside (in words)", "setting": "[1]", "value": "comparable"}, {"measurement": "Inhibiting Dose [carbohydrate residues]", "setting": "[1]; [6]", "value": 0.025, "unit": "M"}]}
{"compound": "CCCO[C@@H]1O[C@H](CO)[C@@H](O[C@@H]2O[C@@H](C)[C@@H](O)[C@@H](O)[C@@H]2O)[C@H](O[C@@H]2O[C@H](CO)[C@H](O)[C@H](OS(=O)(=O)O)[C@H]2O)[C@H]1O", "note": "[Compound 8]", "values": [{"measurement": "IC50 for preventing L-selectin binding (in words)", "setting": "[2]", "value": "in the mmolar range"}, {"measurement": "relative effectiveness at blocking P-selectin binding (in words)", "setting": "[3]", "value": "the worst at blocking binding"}, {"measurement": "relative effectiveness in binding to E-selectin (in words)", "setting": "[4]", "value": "considerably more effective than the 6-sulfate 9 or the 3,6-disulfate 10"}]}
{"compound": "CCCO[C@@H]1O[C@H](CO)[C@@H](O[C@@H]2O[C@@H](C)[C@@H](O)[C@@H](O)[C@@H]2O)[C@H](O[C@@H]2O[C@H](COS(=O)(=O)O)[C@H](O)[C@H](O)[C@H]2O)[C@H]1O", "note": "[Compound 9]", "values": [{"measurement": "IC50 for preventing L-selectin binding (in words)", "setting": "[2]", "value": "in the mmolar range"}, {"measurement": "relative effectiveness at blocking P-selectin binding (in words)", "setting": "[3]", "value": "slightly better"}]}
{"compound": "CCCO[C@@H]1O[C@H](CO)[C@@H](O[C@@H]2O[C@@H](C)[C@@H](O)[C@@H](O)[C@@H]2O)[C@H](O[C@@H]2O[C@H](COS(=O)(=O)O)[C@H](O)[C@H](OS(=O)(=O)O)[C@H]2O)[C@H]1O", "note": "[Compound 10]", "values": [{"measurement": "IC50 for preventing L-selectin binding (in words)", "setting": "[2]", "value": "in the mmolar range"}, {"measurement": "relative binding to L-selectin (in words)", "setting": "[2]; compared among 8, 9, 10", "value": "bound no more tightly to L-selectin than the 3- and 6-sulfo analogs 8 and 9"}, {"measurement": "relative effectiveness at blocking P-selectin binding (in words)", "setting": "[3]", "value": "the most active"}]}
{"compound": "CO[C@H]1O[C@H](CO)[C@@H](O)[C@H](O)[C@H]1O", "note": "[methyl-α-D-glucopyranoside, reference compound]", "values": [{"measurement": "Inhibiting Dose [carbohydrate residues]", "setting": "[1]; [6]", "value": 0.05, "unit": "M"}]}
{"compound": "CO[C@H]1O[C@H](CO)[C@@H](O)[C@H](O)[C@@H]1O", "note": "[methyl-α-D-mannopyranoside, reference compound]", "values": [{"measurement": "Inhibiting Dose [carbohydrate residues]", "setting": "[1]; Table 3, hemagglutination inhibition assay, mono- and multivalent carbohydrate derivatives", "value": 0.05, "unit": "M"}]}
{"compound": "fucose", "values": [{"measurement": "binding of fucose to Con A (in words)", "setting": "[5]; Goldstein 1976", "value": "does not bind"}]}
{"compound": "mannose", "values": [{"measurement": "binding to Con A (in words), calorimetric data", "setting": "[5]; compared with glucose", "value": "slightly higher affinity"}]}
